# Experimental data from patent publication US6897228B2, “Pyridoxine and pyridoxal analogues: new uses” (Medicure International Inc., priority 2000, dated 2005).
# Marks after values point to notes of the source that are not given here.
# Test system: Male Wistar rats, embolic focal cerebral ischemia (MCA)
# Assay: Neuroprotection in rat embolic stroke model
# Assay type: in vivo
# Settings: for infarction volume: 48 h, mean±SEM; for Hemorrhage rate / Mortality rate (pre-mature death) / Seizure occurrence: n=10; for Neurological deficits (modified Bederson score): median (25-75th percentile)
# Excerpt: Male Wistar rats, weighting 300-350 g, were purchased from Charles River, St. Constant, Canada. Embolic focal cerebral ischemia was induced by embolizing a preformed clot into the middle cerebral artery (MCA). (For details of the procedure see Wang C X, Yang Y, Shuaib A. A focal embolic model of cerebral ischemia in rats. Brain Res. Protoc. 7:115-120, 2001. Wang C, Yang T and Shuaib A: An improved version of embolic model of brain ischemic injury in the rat. J. Neurosci. Meth. 109:147-151, 2001).
# The study consisted of four groups (n=10). Animals were randomly assigned to one of the four groups. Treatments were started at 1 h after MCA occlusion. […] In the control group, 0.5% DMSO (1.5 ml) was infused.
# The procedure for assessment of infarct volume were detailed previously (Bederson J B, Pitts L H, Tsuji M, Nishimura M C, Davis R L, Bartkowski H. Rat middle cerebral artery occlusion: evaluation of the model and development of a neurologic examination. Stroke 17:472-476, 1986. Yang, Y., Shuaib, A., and Li, Q. Quantification of infarct size on focal cerebral ischemia model of rats using a simple and economical method. J. Neurosci. Meth., 84:9-16, 1998). Briefly, at 48 h after ischemia the anesthetized animal was sacrificed by decapitation and the brain removed. The volume of infarction was measured in the brain sections stained with 2,3,5-triphenyltetrazolium chloride (TTC) solution with following formula, corrected infarct size=the volume of the left hemisphere−(the volume of the right hemisphere-measured infarct volume). The percentage of infarct volume was obtained by calculating the portion of the corrected infarct volume and dividing it by the total volume of the left hemisphere. Brain swelling was determined using a formula: swelling (edema)=(volume of the right hemisphere[…])/volume of the left hemisphere. Hemorrhage transformation was identified from the TTC stain brain sections.
# Neurological deficits and seizure activities were recorded at 2, 24 and 48 hours after embolization. Neurological deficits were determined using a modified Bederson's scoring system (Bederson J B, Pitts L H, Tsuji M, Nishimura M C, Davis R L, Bartkowski H. Rat middle cerebral artery occlusion: evaluation of the model and development of a neurologic examination. Stroke (17:472-476, 1986). 0: no observable deficit; 1: forelimb flexion; 2: forelimb flexion plus decreased resistance to lateral push; 3: unidirectional circling; 4: unidirectional circling plus decreased level of consciousness. Seizure activity, hemorrhage and mortality were also recorded. […]. Results are shown in Table 25-1
# The differences of infarction volume were analyzed with one way ANOVA followed by Dunnett's test. Neurological deficit scores were reported as medians and interquartile ranges, considering 25-75th percentile. The neurological scores were analyzed with Kruskal-Wallis test when more than two groups, and analyzed with Mann-Whitney test when comparison was done in two groups. The rates of mortality and seizure occurrence following different treatments were compared with Chi-square test. Differences were considered significant when p<0.05.
structure (smiles),measurement,setting,value
Cc1ncc(CNc2ccc(-c3ccc(C(=N)N)cc3)cc2)c(CO)c1O [Compound XL],infarction volume,"10 mg/kg at 1 h after embolization, control 40±2.6%",30.5±4.8%
same,Hemorrhage rate,"10 mg/kg group, control 1 rat",2 rats
same,Mortality rate (pre-mature death),"10 mg/kg group, control 1 rat",1
same,Seizure occurrence,"10 mg/kg group, control 2 rats",3 rats
same,Ischemic brain edema,"10 mg/kg, control 5.7±1.3",6.8±1.9
same,Neurological deficits (modified Bederson score),"10 mg, 2 h after injury",3 (3-3)
same,Neurological deficits (modified Bederson score),"10 mg, 24 h after injury",2 (2-3)*
same,Neurological deficits (modified Bederson score),"10 mg, 48 h after injury",2 (2-3)*
same,Ischemic brain edema,20 mg/kg,5.9±1.3
same,infarction volume,20 mg/kg at 1 h after embolization,26.5±4.4%
same,Hemorrhage rate,20 mg/kg group,1 rat
same,Mortality rate (pre-mature death),20 mg/kg group,1
same,Seizure occurrence,20 mg/kg group,2 rats
same,Neurological deficits (modified Bederson score),"20 mg, 2 h after injury",3 (3-3)
same,Neurological deficits (modified Bederson score),"20 mg, 24 h after injury",2 (2-3)*
same,Neurological deficits (modified Bederson score),"20 mg, 48 h after injury",2 (2-3)*
same,Ischemic brain edema,40 mg/kg,7.9±2.1
same,infarction volume,40 mg/kg at 1 h after embolization,25.9±3.4%
same,Hemorrhage rate,40 mg/kg group,2 rats
same,Seizure occurrence,40 mg/kg group,2 rats
same,Neurological deficits (modified Bederson score),"40 mg, 2 h after injury",3 (3-3)
same,Neurological deficits (modified Bederson score),"40 mg, 24 h after injury",2 (2-3)*
same,Neurological deficits (modified Bederson score),"40 mg, 48 h after injury",2.5 (2-2)*
